# In US11485736B2 (KSQ Therapeutics, Inc., priority 2018, dated 2022):
# Where two headings read alike, the source gives them in different places.
# Columns and labels:
# [1] = ADME solubility determination at pH 2.0 and pH 7.4; format: physicochemical; conditions: aqueous buffer, thermodynamic from solid, LC-MS/MS
# Experimental: Certain Compounds of the Disclosure were assessed for ADME solubility at pH 2.0 and pH 7.4.
# Stock solutions were prepared by adding each compound to DMSO at a concentration of 10 mM. Samples were prepared by adding 50 μL of each stock solution to separate vials. The vials were loaded onto a 96-well rack and dried. 500 μL of Phosphate Buffered Saline (PBS) pH 7.4 or PBS pH 2.0 were added into each vial. The vials were then shaken at 25° C. and 1,100 rpm for 24 hours.
# After 24 hours, the vials were centrifuged at 3220 G and 25° C. for 30 minutes. The supernatant fluid was analyzed by LC-MS/MS against a standard of known concentration. The solubility of each sample was then calculated using the equation below:
# [formula] where DF is the dilution factor.
# [2] = Liver microsomal stability, human liver microsomes; format: in vitro ADME; conditions: 1 μM compound, NADPH, read-out: t1/2 (min) in HLM
# Experimental: (§1) Certain Compounds of the Disclosure were assessed for ADME metabolic stability in human liver microsomes (HLM) and rat liver microsomes (RLM).
# (§2) Samples were prepared by adding 222.5 μL of a master solution (100 mM phosphate buffer and 1 mg/mL liver microsomes (HLM or RLM)) and 25 μL of a 10 mM NADPH solution to incubation plates, which were then warmed for 10 min. Each compound was separately dissolved in DMSO to prepare 10 mM stock solutions, which were then diluted to 100 μM with acetonitrile. A reaction was started by adding 2.5 μL of the 100 μM solution of each compound to separate incubation plates such that the final concentration of for each compound in each plate was 1 μM.
# (§3) 25 μL aliquots of each sample were taken at 0.5, 5, 10, 15, 20 and 30 minutes, and the reaction was stopped by adding 5 volumes of cold acetonitrile with IS (100 nM alprazolam, 200 nM caffeine and 100 nM tolbutamide). The samples were then centrifuged at 3,220 G for 30 minutes, and 100 μL of the supernatant fluid was mixed with 100 μL of ultra-pure H2O.
# (§4) The samples were then analyzed by LC-MS/MS. Peak areas were determined from extracted ion chromatograms. Slope values (k) were determined by linear regression of the natural logarithm of the remaining percentage of the compound vs. incubation time curve. […] The in vitro half-life (min) was converted into the in vitro intrinsic clearance (in vitro CLint, in μL/min/mg protein) using the following equation: […]
# [3] = Liver microsomal stability, rat liver microsomes; format: in vitro ADME; conditions: 1 μM compound, NADPH, read-out: t1/2 (min) in RLM
# Experimental: as §1, §2, §3, §4
# [4] = PBS pH 2.0, shaken at 25° C. for 24 hours, read-out: Solubility at pH 2.0
# [5] = PBS pH 7.4, shaken at 25° C. for 24 hours, read-out: Solubility at pH 7.4
# [6] = phosphate buffered saline, PBS pH 2.0, shaken at 25° C. for 24 hours, read-out: Solubility at pH 2.0
# [7] = phosphate buffered saline, PBS pH 7.4, shaken at 25° C. for 24 hours, read-out: Solubility at pH 7.4
SMILES,"solubility at 24 h [1, 4] [µM]","solubility at 24 h [1, 5] [µM]",half-life at 1 μM [2] [min],half-life at 1 μM [3] [min],"solubility at 24 h [1, 6] [µM]","solubility at 24 h [1, 7] [µM]"
COc1ncnc(C2CC2)c1-c1ncc2cnn(Cc3ccc(-n4nc(C(F)(F)F)cc4SC)cc3)c2n1 [Example 38],< 10,< 10,< 25,< 25,–,–
CCn1cc(C(F)(F)F)nc1-c1ccc(Cn2ncc3cnc(-c4c(OC)ncnc4OC4CC4)nc32)cc1 [Example 114],> 10,> 10,< 25,< 25,–,–
COc1ncnc(C2CC2)c1-c1ncc2cnn(Cc3ccc(-c4nc(C(F)(F)F)cn4C)cc3F)c2n1 [Example 20],< 10,< 10,> 25,> 25,–,–
COc1ncnc(C2CC2)c1-c1ncc2cnn(Cc3ccc(-c4nc(C(F)(F)F)cn4C(C)C)cc3)c2n1 [Example 143],< 10,< 10,> 25,> 25,–,–
COc1ncnc(C(C)(C)C)c1-c1ncc2cnn(Cc3ccc(-c4nc(C(F)(F)F)cn4C)cc3)c2n1 [Example 109],< 10,< 10,< 25,< 25,–,–
"CCn1cc(C(F)(F)F)nc1-c1ccc(Cn2nc(C#N)c3cnc(-c4c(OC)ncnc4C4CC4)nc32)cc1 [Example 172, 6-(4-cyclopropyl-6-methoxypyrimidin-5-yl)-1-(4-(1-ethyl-4-(trifluoromethyl)-1H-imidazol-2-yl)benzyl)-1H-pyrazolo[3,4-d]pyrimidine-3-carbonitrile]",< 10,< 10,> 25,< 25,–,–
CCn1cc(C(F)(F)F)nc1-c1ccc(Cn2ncc3cnc(-c4c(OC)ncnc4C4CC4)nc32)cc1F [Example 18],< 10,< 10,> 25,> 25,–,–
COc1ncnc(C2CC2)c1-c1ncc2ncn(Cc3ccc(-c4nc(C(F)(F)F)cn4C)cc3)c2n1 [Example 203],> 10,> 10,< 25,< 25,–,–
Cc1cc(C(F)(F)F)nn1-c1ccc(Cn2ncc3cnc(-c4ccccc4C(C)C)nc32)cc1 [Example 23],< 10,< 10,> 25,< 25,–,–
"COc1ncnc(C2CC2)c1-c1ncc2cnn(Cc3ccc(-c4nc(C(F)(F)F)cn4C)cc3)c2n1 [Example 12, 6-(4-cyclopropyl-6-methoxypyrimidin-5-yl)-1-(4-(1-methyl-4-(trifluoromethyl)-1H-imidazol-2-yl)benzyl)-1H-pyrazolo[3,4-d]pyrimidine]",> 10,> 10,< 25,> 25,–,–
CCOc1ncnc(C2CC2)c1-c1ncc2cnn(Cc3ccc(-c4nc(C(F)(F)F)cn4C)cc3)c2n1 [Example 39],–,–,< 25,< 25,> 10,< 10
CC(C)Oc1ncnc(C2CC2)c1-c1ncc2cnn(Cc3ccc(-c4nc(C(F)(F)F)cn4C)cc3)c2n1 [Example 40],> 10,< 10,< 25,< 25,–,–
COCCOc1ncnc(C2CC2)c1-c1ncc2cnn(Cc3ccc(-c4nc(C(F)(F)F)cn4C)cc3)c2n1 [Example 42],> 10,> 10,< 25,< 25,–,–
"COc1ncnc(C2CC2)c1-c1ncc2cnn(Cc3ccc(-c4nc(C(F)(F)F)cn4C(C)CF)cc3)c2n1 (stereo not drawn) [Example 151, 6-(4-cyclopropyl-6-methoxypyrimidin-5-yl)-1-(4-(1-(1-fluoropropan-2-yl)-4-(trifluoromethyl)-1H-imidazol-2-yl)benzyl)-1H-pyrazolo[3,4-d]pyrimidine]",> 10,> 10,> 25,> 25,–,–
COc1ncnc(C2CC2)c1-c1ncc2cnn(Cc3ccc(-c4nc(C(F)(F)F)nn4C(C)C)cc3)c2n1 [Example 58],< 10,< 10,> 25,> 25,–,–
COc1ncnc(C2CC2)c1-c1nc(OC)c2cnn(Cc3ccc(-n4nc(C(F)(F)F)cc4C)cc3)c2n1 [Example 28],< 10,< 10,> 25,> 25,–,–
COc1ncnc(C2CC2)c1-c1ncc2cnn(Cc3ccc(-c4nc(C(F)(F)F)cn4C4CN(C)C4)cc3)c2n1 [Example 153],–,–,< 25,< 25,> 10,> 10
COc1ncnc(C2CC2)c1-c1ncc2cnn([C@H](C)c3ccc(-c4nc(C(F)(F)F)cn4C(C)C)cc3)c2n1 [Example 98],> 10,> 10,> 25,< 25,–,–
CCOc1ncnc(OCC)c1-c1ncc2cnn(Cc3ccc(-c4nc(C(F)(F)F)cn4CC)cc3)c2n1 [Example 91],> 10,< 10,< 25,< 25,–,–
COc1ncnc(C2(C)CC2)c1-c1ncc2cnn(Cc3ccc(-n4nc(C(F)(F)F)cc4C)cc3)c2n1 [Example 105],> 10,< 10,> 25,> 25,–,–
COCCOc1ncnc(C2CC2)c1-c1ncc2cnn(Cc3ccc(-n4nc(C(F)(F)F)cc4C)cc3)c2n1 [Example 43],< 10,> 10,< 25,< 25,–,–
COc1ncnc(C2CC2)c1-c1ncc2cnn(C(C)c3ccc(-c4nc(C(F)(F)F)cn4CCF)cc3)c2n1 (stereo not drawn) [Example 141],> 10,< 10,> 25,> 25,–,–
"COc1ncnc(C2CC2)c1-c1ncc2cnn([C@H]3CCc4cc(-c5nc(C(F)(F)F)cn5C(C)C)ccc43)c2n1 [Example 173, (S)-6-(4-cyclopropyl-6-methoxypyrimidin-5-yl)-1-(5-(1-isopropyl-4-(trifluoromethyl)-1H-imidazol-2-yl)-2,3-dihydro-1H-inden-1-yl)-1H-pyrazolo[3,4-d]pyrimidine]",< 10,< 10,> 25,> 25,–,–
COc1ncnc(C2CC2(C)C)c1-c1ncc2cnn(Cc3ccc(-c4nc(C(F)(F)F)cn4C(C)C)cc3)c2n1 (stereo not drawn) [Example 108],> 10,< 10,< 25,< 25,–,–
CCn1cc(C(F)(F)F)nc1-c1ccc([C@H](C)n2ncc3cnc(-c4c(OC)ncnc4OC)nc32)cc1 [Example 88],> 10,> 10,> 25,< 25,–,–
CCOc1ncnc(C2CC2)c1-c1ncc2c(OCC)nn(Cc3ccc(-c4nc(C(F)(F)F)cn4CC)cc3)c2n1 [Example 183],< 10,< 10,< 25,< 25,–,–
"CCn1cc(C(F)(F)F)nc1-c1ccc(Cn2nc(SCc3ccc(OC)cc3)c3cnc(-c4c(OC)ncnc4C4CC4)nc32)cc1 [Example 192, 6-(4-cyclopropyl-6-methoxypyrimidin-5-yl)-1-(4-(1-ethyl-4-(trifluoromethyl)-1H-imidazol-2-yl)benzyl)-3-((4-methoxybenzyl)thio)-1H-pyrazolo[3,4-d]pyrimidine]",< 10,< 10,< 25,< 25,–,–
COc1ncnc(C2CC2)c1-c1ncc2ncn(Cc3ccc(-c4nc(C(F)(F)F)cn4C(C)C)cc3)c2n1 [Example 204],> 10,> 10,> 25,< 25,–,–
COc1ncnc(C2CC2)c1-c1ncc2cnn(Cc3ccc(-c4csc(C(F)(F)F)n4)cc3)c2n1 [Example 126],< 10,< 10,–,–,–,–
